Data taken from patent publication US20260256753A1, “USE OF AN OREXIN 2 RECEPTOR AGONIST FOR IMPROVING RESPIRATORY FUNCTION DURING SLEEP” (TAKEDA PHARMACEUTICAL COMPANY LIMITED, priority 2023, published 2026).

Tests used:
rats = experiment: Arousal effects after oral administration in rats; assay type: in vivo, rat; settings: oral administration at 10 mg/kg or more
OX2R = biological target: T1, OX2R (Homo sapiens, UniProt O43614); settings: OX2R-expressed recombinant cells; cited from earlier work
T1 sequence (O43614 1-444): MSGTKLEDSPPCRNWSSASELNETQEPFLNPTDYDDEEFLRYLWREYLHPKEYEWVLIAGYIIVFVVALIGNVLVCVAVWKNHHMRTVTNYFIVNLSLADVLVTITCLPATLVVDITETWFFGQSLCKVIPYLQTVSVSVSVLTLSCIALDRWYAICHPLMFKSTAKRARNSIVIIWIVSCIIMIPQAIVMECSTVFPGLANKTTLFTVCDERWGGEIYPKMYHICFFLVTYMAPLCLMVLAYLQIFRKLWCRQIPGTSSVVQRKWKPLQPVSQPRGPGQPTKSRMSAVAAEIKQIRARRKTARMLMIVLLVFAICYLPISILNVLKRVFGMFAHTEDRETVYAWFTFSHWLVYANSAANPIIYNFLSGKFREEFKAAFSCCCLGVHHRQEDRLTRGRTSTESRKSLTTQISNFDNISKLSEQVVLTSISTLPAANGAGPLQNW

[1] = test system: patients with obstructive sleep apnea; experiment: Phase 1b crossover study in obstructive sleep apnea: overnight polysomnography (PSG); assay type: in vivo, human
Procedure: (§1) A phase 1b, randomized, double-blind, placebo-controlled, 3-period crossover study was conducted to evaluate the safety, tolerability, pharmacodynamic, and pharmacokinetic effects of overnight intravenous COMPOUND A in patients with obstructive sleep apnea (OSA). This study was planned to further evaluate COMPOUND A intravenous administration (IV) in adults with OSA, hypothesizing that nonwake-promoting exposures of COMPOUND A would increase genioglossal muscle tone and increase airway patency via the increasing activity of hypoglossal motoneurons. The main goal of this study was to evaluate the mechanistic potential of OX2R agonism for treatment of OSA using COMPOUND A IV infusion to determine appropriate use in future trials with an oral OX2R agonist.
(§2) Participants were male or female, aged 18 to 75 years inclusive, with OSA diagnosed according to the International Classification of Sleep Disorders-3 (ICSD-3) criteria and an apnea hypopnea index (AHI) of 12 to 50 events/hour of sleep. The study consisted of a screening period, 3 treatment periods separated by 2 washout periods, and a follow-up period. A total of 13 participants were enrolled and randomized, of which 12 (92.3%) participants completed all planned doses of study drug and the study.
(§3) Eligible participants were randomly assigned (in a double-blinded manner) to 1 of 6 treatment sequences. In each treatment period, participants underwent 3 UACI assessments, a 10-minute evaluation that tested the key biological mechanism that causes OSA (as described by Osman, A. M., et al., 2019, Sleep, 42 (7), 1-10), followed by an overnight polysomnography (PSG). After the first baseline UACI assessment (U1), an IV infusion regimen of COMPOUND A or placebo was administered over approximately 10 hours to achieve specific plasma concentrations to evaluate the effect of COMPOUND A on the UACI and PSG metrics. Target plasma concentrations for the low-dose COMPOUND A IV regimen were 10 ng/mL for the second UACI (U2), 30 ng/ml for the third UACI (U3), and 10 ng/ml for the overnight PSG. Target plasma concentrations for the high-dose COMPOUND A IV regimen were 30 ng/mL for the U2, 90 ng/mL for the U3, and 30 ng/ml for the overnight PSG.
(§4) To achieve the target exposures for the UACI assessments (U2 and U3), there was a 20-minute loading period, followed by a 15-minute maintenance period for each. The overnight maintenance dose (approximately 490 minutes) covered the duration of a standard overnight PSG (approximately 8 hours). Doses were selected to cover the potential pharmacologically active concentration range for upper airway collapsibility. The concentration of COMPOUND A in solution was such that participants received the same volume of fluid in the low-dose COMPOUND A regimen, the high-dose COMPOUND A regimen, and placebo, allowing the study to be double-blinded and ensuring all participants were infused with the same volume of fluid.
Following the baseline UACI measurements, IV infusion of placebo or COMPOUND A began. COMPOUND A was tested at 2 concentrations in a stepwise manner, consisting of a 20 minute loading period followed by a 15 minute maintenance period per step. The UACI was tested at each concentration during the maintenance period. A Karolinska Sleepiness Scale (KSS) was administered immediately prior to each UACI testing period to gauge subjective sleepiness. After the U3 test, a KSS was administered, after which the UACI testing equipment (pressure sensors, genioglossus EMG electrodes) was removed with the exception of EEG electrodes that remained in place to record PSG throughout the evening. Prior to lights off, a final KSS was administered. Lights-off occurred, and participants were then allowed to sleep until the following morning (Day 2). Infusion of COMPOUND A/placebo was maintained throughout the night during the nocturnal PSG (nPSG) and ended approximately 8 hours after lights off. Participants were then discharged on Day 2. […]

[2] = test system: patients with obstructive sleep apnea; experiment: Phase 1b crossover study of overnight intravenous infusion in obstructive sleep apnea: safety and tolerability; assay type: in vivo, human; settings: for placebo adjusted LS mean change in DBP / placebo adjusted LS mean change in SBP: at predose
Procedure: as §1, §2, §3, §4
On Day 1 of each treatment period, participants checked in approximately 3 hours prior to the scheduled dosing time. The procedure started in the evening to reduce the confounding factors of endogenous OX levels on assessments. Start time was adjusted based on the patient's usual bedtime. Following a physical examination, urine drug screen, and alcohol breathalyzer test, participants were fitted with an IV catheter for placebo/COMPOUND A infusion, electroencephalogram (EEG) electrodes to monitor wakefulness, choanal and epiglottic pressure sensors, and a nasal mask and pneumotachograph to measure airflow (Osman, et al. 2019).
Following the baseline UACI measurements, IV infusion of placebo or COMPOUND A began. COMPOUND A was tested at 2 concentrations in a stepwise manner, consisting of a 20 minute loading period followed by a 15 minute maintenance period per step. The UACI was tested at each concentration during the maintenance period. […]

[3] = 30 ng/ml continuously throughout the sleep period

Compound: CC(C)(O)C(=O)N1CC(F)(F)[C@H](NS(C)(=O)=O)[C@@H]1Cc1cccc(-c2cc(F)cc(F)c2)c1F [Compound C, N-{(2S,3R)-4,4-difluoro-1-(2-hydroxy-2-methylpropanoyl)-2-[(2,3′,5′-trifluoro[1,1′-biphenyl]-3-yl)methyl]pyrrolidin-3-yl}methanesulfonamide]
- arousal effects (rats): potent arousal effects

Compound: COC(=O)N1CCC[C@H](NS(C)(=O)=O)[C@@H]1CO[C@H]1CC[C@@H](c2ccccc2)CC1 (relative stereo) [Compound A, methyl(2R,3S)-3-((methylsulfonyl)amino)-2-(((cis-4-phenylcyclohexyl)oxy)methyl) piperidine-1-carboxylate]
- recruitment of β-arrestins (OX2R): promote recruitment of β-arrestins
- REM [1, 3]: significantly decreased
- ability to fall asleep [1, 3]: did not cause an inability to fall asleep
- sleep efficiency [1, 3]: reducing
- wake after sleep onset [1, 3]: increasing
- arousal threshold in response to ventilatory disturbance ([1]; high-dose regimen): decreased
- hypoxic burden estimate ([1]; high-dose regimen): ≤ 53 %*minutes/hour
- loop gain ([1]; high-dose regimen): decreased
- AHI LS mean ([1]; high-dose regimen of 30 ng/ml overnight): less than 30 events/hour
- decrease in AHI ([1]; high-dose regimen of 30 ng/ml overnight, statistically and clinically significant): approximately 9 events/hour
- pharyngeal collapsibility during sleep (Vpassive and Vactive) ([1]; high-dose regimen, OSA endotypes): appeared to decrease
- hypoxic burden ([1]; high-dose regimen, placebo-adjusted difference statistically significant): beneficial reduction in hypoxic burden
- hypoxic burden estimate ([1]; low-dose regimen): ≤ 53 %*minutes/hour
- participants who experienced drug-related TEAEs ([2]; all treatment periods (low-dose, high-dose, placebo), 13 participants): 23.1%
- number of drug-related TEAEs ([2]; all treatment periods (low-dose, high-dose, placebo), all mild): 4
- deaths or serious TEAEs ([2]; during the study): No deaths or serious TEAEs
- drug related TEAEs ([2]; high dose regimen): no drug related TEAEs
- placebo adjusted LS mean change in DBP ([2]; high dose regimen): 1.84 mmHg
- placebo adjusted LS mean change in SBP ([2]; high dose regimen): 9.01 mmHg
- consequence of TEAE of blood pressure increased ([2]; low dose regimen): led to study drug discontinuation
- placebo adjusted LS mean change in DBP ([2]; low dose regimen): 0.29 mmHg
- placebo adjusted LS mean change in SBP ([2]; low dose regimen): 2.44 mmHg
- dose related trend of most frequent TEAE (headache) ([2]; low versus high dose regimen): no dose related trend was observed
- tolerability ([2]; low-dose and high-dose IV regimens, adult participants with OSA): generally well tolerated with no safety concerns
- drug-related TEAE of blood pressure increased (number) ([2]; low-dose regimen): 1
- drug-related TEAE of myalgia (number) ([2]; low-dose regimen): 1
- drug-related TEAEs of headache (number) ([2]; low-dose regimen and placebo together): 2
- intensity of TEAEs ([2]; whole study, moderate headache on low dose regimen, not related to study drug): mild in intensity except for 1 moderate TEAE of headache
